Where a SMILES comes first, the peptide text is derived from it. Bridges are numbered along the chain shown (N, C = ends). [ ]: non-standard residue; d: D form. The star is where a group is joined. d2Nal = N[C@H](Cc1ccc2ccccc2c1)C(=O)O; Palmitoyl = CCCCCCCCCCCCCCCC(=O)*
Test: Coating thickness by optical profilometry
Type: physicochemical
Details: submersion coating on PVC-coated glass slide
Protocol: For surface topology studies, PVC powder was purchased and dissolved in 3:2 cyclopentanone:tetrahydrofuran at a concentration of 10 mg/mL. PVC solution (50 μL) was used to spin-coat 1 cm diameter glass slides for 1 minute at 3,000 RPM. The PVC-coated slides were allowed to dry for 24 hours prior to submersion coating in 2 mL AMPA solutions. Coated products were removed from submersion and dried in 24-well plates under aseptic conditions for at least 24 hours prior to characterization. The coating was assessed via contact angle to evaluate surface hydrophilicity and optical profilometry to measure coating thickness. […] Electron microscopy of the AMPA coatings has shown no presence of micelles.

coating thickness: approximately 30 nm
SMILES: CCCCCCCCCCCCCCCC(=O)NCCCC[C@H](NC(=O)[C@H]1CCCN1C(=O)[C@H](NC(=O)[C@@H]1CCCCNC(=O)C[C@H](NC(=O)[C@@H](NC(=O)[C@H](CCCNC(=N)N)NC(=O)[C@@H](NC(=O)[C@H](CCCNC(=N)N)NC(=O)[C@@H](NC(=O)[C@H](CCCNC(=N)N)NC(=O)[C@@H](N)Cc2ccccc2)[C@@H](C)CC)C(C)C)C(C)C)C(=O)N[C@@H](CCCNC(=N)N)C(=O)N[C@@H](CCCNC(=N)N)C(=O)N[C@H](Cc2ccc3ccccc3c2)C(=O)N[C@@H](Cc2ccccc2)C(=O)N[C@@H](Cc2c[nH]c3ccccc23)C(=O)N[C@@H](CCCNC(=N)N)C(=O)N1)C(C)C)C(N)=O [AB01-KPalm, FRIRVRV[DRR-dNal(2′)-FWRK]dV-Dp [SEQ. ID. NO. 1]-K(Palm)] (H-FRIRVRVDRR[d2Nal]FWRK[dV][dP]K(Palmitoyl)-NH2; lactam 8-15; N-terminus and C-terminus assumed)

Reference: patent publication US20180194967A1, “ANTIMICROBIAL PEPTIDE AMPHIPHILE COATINGS” (priority 2017, published 2018)
